Assay results published in patent publication US5652359A, “Oligonucleotides containing n-methyl thiolated bases having antiviral activity” (Epoch Pharmaceuticals, Inc., priority 1993, dated 1997).

System: HIV-1 (strain LAY-1)
Experiment: Inhibition of HIV virus replication in human peripheral blood mononuclear (PBM) cells
Type: cell-based
Details: Human immunodeficiency virus 1, PBMC, 144 h, supernatant RT activity six days after infection, read-out: IC50, 50% inhibition of replication of HIV
Text: The group R' in Table 1 represents the cholesterol "tail" of Compound 7 which is connected to the 3'-terminal phosphate through a "linking group" derived from 4-hydroxy-2-hydroxymethylpyrrolidine and carbonyl connecting group. […] The IC50 numbers in Table 1 refer to the concentration of the compound which gives 50% inhibition of replication of HIV in a cell culture of human peripheral blood mononuclear (PBM) cells.
Cell Culture. Human PBM cells from healthy HIV-1 seronegative and hepatitis B virus seronegative donors were isolated by Ficoll-Hypaque discontinuous gradient centrifugation at 1,000× g for 30 minutes, washed twice in phosphate-buffered saline (pH 7.2; PBS), and pelleted at 300× g for 10 min. […]
Viruses. […] The virus was propagated in human PBM cells using RPMI 1640 medium, as described previously (McDougal, J. S., Cort, S. P., Kennedy, M. S. Cabridilla, C. D., Feorino, P. M., Francis, D. P., Hicks, D., Kalyanaramen, V. S. and Martin, L. S. (1985): Immunoassay for the detection and quantitation of infectious human retrovirus, lymphadenopathy-associated virus (LAV). J. Immun. Meth. 76:171-183) without PHA or fungizone and supplemented with 26 units/ml of recombinant interleukin-2 (Cetus Corporation, Emeryville, Calif.), 7 μg/ml DEAE-dextran (Pharmacia, Uppsala, Sweden), and 370 U/ml anti-human leukocyte (alpha) interferon (ICN, Lisle, Ill.). […]

Work on `CO[C@@H]1[C@H](O)[C@@H](CO)O[C@H]1n1cnc2c(=S)n(C)cnc21` [Nucleoside, 9(2'-O-methyl-1-β-D-ribofuranosyl)-1-methyl-6-thiopurine] yielded an IC50 of roughly 100 µM.
